# “Also recorded” adds a separate entry of the source.
# System: angiogenesis
# Assay: Peritoneal implantation of Y-pore bioceramic implants in mice for 15 days, wound tissue and angiogenesis patterns
# Conditions: for tissue response in pores: mice
# [1] = DCPD implant treated with VEGF at the blind end of the closed pore
# Text: In order to produce model implants for the investigation of spatially localized release of both organic (VEGF), a Y shaped hemi-cylindrical pore channel was designed in the x-y plane of DCPD cuboids with dimensions 8 mm×8 mm×3 mm. The bioceramic endoprosthesis was made in two mirror image halves 50, 52 that keyed into one another to form a Y shaped pore 51a, 51b closed at one of the branched ends (see FIGS. 2A-2C). […] In the experiments, mouse VEGF solution was deposited at the end of the closed pore.
# Wound tissue and angiogenesis patterns were examined for the implanted bioceramic endoprosthesis after peritoneal implantation of the bioceramic endoprosthesis in mice for 15 days.
# For experimental analysis, VEGF-impregnated bioceramic materials were prepared by passive adsorption of 200 ng or 2 μg final amount of mouse VEGF (R&D, Cedarlane Laboratories Ltd., Canada) diluted in a 5 μl volume of Hank's balanced salt solution (HBSS). Adsorption of VEGF was performed on each half of the bioceramic endoprosthesis (see FIGS. 2A-2D) at the closed end (3) of the Y-shape pore. Specimens were air-dried under a sterile laminar flow hood. Prior to VEGF impregnation, the bioceramic materials were sterilized by soaking in 70% ethanol, followed by a HEPES-NaCl buffered solution rinse, HBSS (×3), and then air-dried. Control material specimens were also impregnated with HBSS without VEGF. Higher concentrations of VEGF (400 μg/ml) were also investigated.
substance,measurement,setting,value
vascular endothelial growth factor [VEGF],"microvessel formation (microscopic observation, FIG. 3A)",[1],microvessel formation in the tissue only in the closed pore ends
same,"tissue in-growth (photographs, FIG. 3A)",[1],well formed vascular tissue extended from the main pore opening to closed pore end
same,tissue response in pores,"DCPD implant, 200 ng VEGF deposited in closed pore ends, 15 days",vascular tissue throughout the pore channels; also recorded: Vascularised tissue was found inside the main open and closed pore channels
same,tissue response in pores,"DCPD implant, 2 μg VEGF deposited in pore ends, 15 days",vascular tissue throughout the pore channels
same,angiogenic effect compared with untreated DCPD control (quantitative measurements),"DCPD implant, 15 days",significantly enhanced angiogenic effect
same,tissue response in pores,"HA implants containing VEGF, 15 days",very little tissue ingrowth
same,vascularization pattern in pores,"HA implants, 2 μg VEGF deposited in closed pore ends, 15 days implantation",mostly filled with clear connective tissue
same,length of pore into which blood vessels extended,"factor deposited at closed pore end of model implant, peritoneal implantation 15 days, factor-free controls 2 mm",7 mm
